Experimental data published in US20080182865A1, “HISTONE DEACETYLASE INHIBITORS SENSITIZE CANCER CELLS TO EPIDERMAL GROWTH FACTOR INHIBITORS” (priority 2005, published 2008).

Tests used:
[1] = in vivo; cited from earlier work
[2] = test system: E-cad; assay: E-cad expression after MS-275 in gefitinib-resistant NSCLC cell lines; assay type: cell-based, human; conditions: 24 hours after treatment with 4 or 10 μM
[3] = test system: E-cad; conditions: lung cancer cell lines; cited from earlier work
[4] = test system: NSCLC patients; conditions: cited from earlier work; for response rate: single agent, phase I studies, chemotherapy resistant NSCLC patients
[5] = test system: Calu3 NSCLC cell line; assay: Apoptosis and cell death (cell cycle analysis); assay type: cell-based, human; conditions: 10 μM
Protocol: (§1) The effect of gefitinib on inducing apoptosis and cell death in NSCLC cell lines sensitive and resistant to gefitinib was evaluated. […].

[6] = test system: H3255 NSCLC cell line; assay: Apoptosis and cell death (cell cycle analysis); assay type: cell-based, human; conditions: 10 μM
Protocol: as §1

[7] = test system: A549 NSCLC cell line; assay: Apoptosis and cell death (cell cycle analysis); assay type: cell-based, human; conditions: 10 μM
Protocol: as §1

[8] = test system: H322 NSCLC cell line; assay: Apoptosis and cell death (cell cycle analysis); assay type: cell-based, human; conditions: 10 μM
Protocol: as §1

[9] = test system: H358 NSCLC cell line; assay: Apoptosis and cell death (cell cycle analysis); assay type: cell-based, human; conditions: 10 μM
Protocol: as §1

[10] = test system: H460 NSCLC cell line; assay: Apoptosis and cell death (cell cycle analysis); assay type: cell-based, human; conditions: 10 μM
Protocol: (§2) The effect of gefitinib on inducing apoptosis and cell death in NSCLC cell lines sensitive and resistant to gefitinib was evaluated.

[11] = test system: H520 NSCLC cell line; assay: Apoptosis and cell death (cell cycle analysis); assay type: cell-based, human; conditions: 10 μM
Protocol: as §2

[12] = test system: H157 NSCLC cell line; assay: Apoptosis and cell death (cell cycle analysis); assay type: cell-based, human; conditions: 10 μM
Protocol: as §2

[13] = unselected gefitinib treated NSCLC patients

Nc1ccccc1NC(=O)c1ccc(CNC(=O)OCc2cccnc2)cc1 [MS-275]
half-life [1]: 100 h
persistence of changes in histone acetylation following administration [1]: several weeks
upregulation of E-cad expression ([2]; H157): Eight to twelve
upregulation of E-cad expression ([2]; H460): Eight to twelve
upregulation of E-cad expression ([2]; H520): Eight to twelve

CC(/C=C/C(=O)NO)=C\[C@@H](C)C(=O)c1ccc(N(C)C)cc1 [TSA, trichostatin A]
effect on E-cad [3]: activation of E-cad

C#Cc1cccc(Nc2ncnc3cc(OCCOC)c(OCCOC)cc23)c1 [erlotinib]
survival ([4]; second or third line therapy, National Cancer Institute Canada trial): survival benefit
response rate [4]: about 10%

COc1cc2ncnc(Nc3ccc(F)c(Cl)c3)c2cc1OCCCN1CCOCC1 [gefitinib]
response rate [4]: about 10%
objective response [4, 13]: up to 18%
symptomatic improvement [4, 13]: 40%
increase in apoptosis and cell death [5]: 2.3-3.4 fold
increase in apoptosis and cell death [6]: 35 fold
apoptosis and cell death [7]: no apoptotic or necrotic effect
increase in apoptosis and cell death [8]: 2.3-3.4 fold
increase in apoptosis and cell death [9]: 2.3-3.4 fold
apoptosis and cell death [10]: no apoptotic or necrotic effect
apoptosis and cell death [11]: no apoptotic or necrotic effect
apoptosis and cell death [12]: no apoptotic or necrotic effect
